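Each compound was tested at five concentrations against cells in 96-well plates for 48 hours. GI50 is the concentration that inhibits growth by half.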 Calls of active or inactive are those of the source. Cut-off read from the data, not from the text of the source: active = GI50 up to about 1.1 µM and inactive = higher.
Assays:
Assay in all cases: inhibition of tumour cell growth, NCI panel, 48 h
CCRF-CEM = tested on: CCRF-CEM
EKVX = tested on: EKVX
CAKI-1 = tested on: CAKI-1
M14 = tested on: M14
TK-10 = tested on: TK-10
SNB-19 = tested on: SNB-19
UO-31 = tested on: UO-31
KM-20L2 = tested on: KM-20L2
Malme-3M = tested on: Malme-3M
HCT-15 = tested on: HCT-15
LOX IMVI = tested on: LOX IMVI
KM12 = tested on: KM12
OVCAR-4 = tested on: OVCAR-4
SK-MEL-2 = tested on: SK-MEL-2
BT-549 = tested on: BT-549
NCI-H522 = tested on: NCI-H522
DU-145 = tested on: DU-145
HCT-116 = tested on: HCT-116
PC-3 = tested on: PC-3
SNB-75 = tested on: SNB-75

Row | SMILES | GI50 (CCRF-CEM) | GI50 (EKVX) | GI50 (CAKI-1) | GI50 (M14) | GI50 (TK-10) | GI50 (SNB-19) | GI50 (UO-31) | GI50 (KM-20L2) | GI50 (Malme-3M) | GI50 (HCT-15) [µM] | GI50 (LOX IMVI) | GI50 (KM12) | GI50 (OVCAR-4) | GI50 (SK-MEL-2) | GI50 (BT-549) | GI50 (NCI-H522) | GI50 (DU-145) | GI50 (HCT-116) | GI50 (PC-3) | GI50 (SNB-75)
1 | COc1ccc(S(=O)(=O)N/N=C/c2cc(I)cc([N+](=O)[O-])c2O)cc1OC | 34.4 µM (inactive) | 44.5 µM (inactive) | 31.6 µM (inactive) | 36.1 µM (inactive) | 62.1 µM (inactive) | 26.3 µM (inactive) | 22 µM (inactive) | > 100 µM (inactive) | 28.7 µM (inactive) | 36.6 | 43.3 µM (inactive) | 31.3 µM (inactive) | 25.2 µM (inactive) | 22.5 µM (inactive) | – | – | – | – | – | –
2 | CC(C)=CCC[C@@H](C)C1=C(N)C(=O)C(C)=C(O)C1=O | 18.7 µM (inactive) | 30.6 µM (inactive) | 35.2 µM (inactive) | 38.7 µM (inactive) | 53.1 µM (inactive) | 60.7 µM (inactive) | 36 µM (inactive) | – | 56.9 µM (inactive) | 23.3 | 36.6 µM (inactive) | 32.7 µM (inactive) | 35.7 µM (inactive) | 65.9 µM (inactive) | > 75 µM (inactive) | 25.8 µM (inactive) | > 75 µM (inactive) | 27.6 µM (inactive) | 54.3 µM (inactive) | 40.6 µM (inactive)
3 | Nc1ccc2nc3n(c2c1)C(c1c(F)cccc1F)SC3 (configuration not stated) | 68.2 µM (inactive) | > 100 µM (inactive) | > 100 µM (inactive) | > 100 µM (inactive) | > 100 µM (inactive) | > 100 µM (inactive) | 72.6 µM (inactive) | – | > 100 µM (inactive) | > 100 | > 100 µM (inactive) | > 100 µM (inactive) | > 100 µM (inactive) | > 100 µM (inactive) | > 100 µM (inactive) | > 100 µM (inactive) | > 100 µM (inactive) | > 100 µM (inactive) | > 100 µM (inactive) | 80.4 µM (inactive)
4 | CC1(COS(=O)(=O)OCC2(C)COS(=O)(=O)OC2)COS(=O)(=O)OC1 | > 28.2 µM (inactive) | > 71.1 µM (inactive) | > 100 µM (inactive) | > 51.4 µM (inactive) | > 74.8 µM (inactive) | > 60.7 µM (inactive) | > 41.2 µM (inactive) | – | > 83 µM (inactive) | > 35.7 | > 40.5 µM (inactive) | > 32.7 µM (inactive) | > 60.8 µM (inactive) | > 55.6 µM (inactive) | > 48.8 µM (inactive) | > 61.1 µM (inactive) | > 36.5 µM (inactive) | > 52.6 µM (inactive) | > 29.6 µM (inactive) | > 100 µM (inactive)
5 | OCCCN(CCc1ccc(Cl)c(Cl)c1)CCN1CCCC1 | 30 µM (inactive) | > 100 µM (inactive) | > 100 µM (inactive) | 17.4 µM (inactive) | 40.6 µM (inactive) | 68.4 µM (inactive) | 50.2 µM (inactive) | – | 23.9 µM (inactive) | 39.5 | 35.9 µM (inactive) | 45.7 µM (inactive) | > 100 µM (inactive) | 18.9 µM (inactive) | 40.2 µM (inactive) | 30.3 µM (inactive) | > 100 µM (inactive) | 47.9 µM (inactive) | 48.9 µM (inactive) | 33 µM (inactive)
6 | O=C1c2ccccc2C(=O)c2c(NCCCN3CCOCC3)ccc(NCCCN3CCOCC3)c21 | 2.59 µM (inactive) | 11 µM (inactive) | 4.45 µM (inactive) | 3.1 µM (inactive) | 12.9 µM (inactive) | 5.3 µM (inactive) | 3.01 µM (inactive) | – | 8.89 µM (inactive) | 2.55 | 1.54 µM (inactive) | 3.12 µM (inactive) | 2.67 µM (inactive) | 8.24 µM (inactive) | 6.62 µM (inactive) | 0.67 µM (active) | < 0.01 µM (active) | 1.23 µM (inactive) | 2.61 µM (inactive) | 2.29 µM (inactive)
7 | COc1cc2c(c(O)c1OC)-c1c(cc(OC)c(OC)c1OC)CC(C)C(C)C2 (configuration not stated) [GOMISIN K3] | 23.4 µM (inactive) | 47.3 µM (inactive) | 42.8 µM (inactive) | 45.1 µM (inactive) | 26.5 µM (inactive) | 60.8 µM (inactive) | 29.4 µM (inactive) | – | 68.7 µM (inactive) | 33 | 49.9 µM (inactive) | 61.1 µM (inactive) | 30.3 µM (inactive) | 45.2 µM (inactive) | 40.8 µM (inactive) | 44.6 µM (inactive) | 45.8 µM (inactive) | 34.7 µM (inactive) | 28.6 µM (inactive) | 34.3 µM (inactive)
8 | C=C(CC[C@@H](C(=O)O)[C@H]1[C@H](O)C[C@@]2(C)C3=CC[C@@H](C(=C)C)[C@](C)(CCC(=O)O)C3=CC[C@]12C)C(C)C [PORICOIC ACID A] | 29.6 µM (inactive) | 17.6 µM (inactive) | 15.2 µM (inactive) | 17.9 µM (inactive) | 17.8 µM (inactive) | 17.7 µM (inactive) | 17.2 µM (inactive) | – | 22.5 µM (inactive) | 17.2 | 19.3 µM (inactive) | 18.3 µM (inactive) | 21.1 µM (inactive) | 18.5 µM (inactive) | 18.5 µM (inactive) | 20.4 µM (inactive) | 20.6 µM (inactive) | 16.4 µM (inactive) | 18.7 µM (inactive) | 20.4 µM (inactive)
